IC50 data for 2 molecules are collected here from patent publication US10266548B2, “Substituted benzylindazoles for use as Bub1 kinase inhibitors in the treatment of hyperproliferative diseases” (Bayer Intellectual Property GmbH, priority 2011, dated 2019).

For one experiment, the system named is DU145 cells. Nature of the experiment: Proliferation assay (DU145 cell line). The class given is cell-based. The settings on record: Homo sapiens, DU-145, 96 h, DU145, 4 days, crystal violet; read-out: Biological Assay 2: Proliferation assay (DU145 cell line) median IC50.
Another experiment concerns B16F10 cells. Put plainly: Proliferation assay (B16F10 cell line). To be noted: Mus musculus, B16-F10, 96 h, B16F10, 4 days, crystal violet; read-out: Biological Assay 2: Proliferation assay (B16F10 cell line) median IC50. Type of experiment: cell-based.
Another experiment deals with NCI-H460 cells. Nature of the experiment: Proliferation assay (H460 cell line). The class given is cell-based. The settings on record: Homo sapiens, NCI-H460, 96 h, H460, 4 days, crystal violet; read-out: Biological Assay 2: Proliferation assay (H460 cell line) median IC50.
A further experiment deals with Caco2 cells. Nature of the experiment: Proliferation assay (Caco2 cell line). To be noted: Homo sapiens, Caco-2, 96 h; Caco2, 4 days, crystal violet; read-out: Biological Assay 2: Proliferation assay (Caco2 cell line) median IC50. Type of experiment: cell-based.
The next experiment relates to HeLa-MaTu-ADR cells. Nature of the experiment: Proliferation assay (HeLa-MaTu-ADR cell line). Type of experiment: cell-based. To be noted: 96 h; HeLa-MaTu-ADR, 4 days, crystal violet; read-out: Biological Assay 2: Proliferation assay (HeLa-MaTu-ADR cell line) median IC50.
Experiment [1] has as its target catalytic domain of human Bub1 (amino acids 704-1085) (Homo sapiens (Human), UniProt O43683). Put plainly: Bub1 kinase assay (TR-FRET). Type of experiment: biochemical. To be noted: 10 μM ATP, 1 μM peptide substrate; read-out: Biological Assay 1: Bub1 kinase assay median IC50. In outline:
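Phosphoserine product detected by TR-FRET (Eu-labeled anti-mouse IgG/anti-phosphoserine antibody to streptavidin-XL665) after 1 h at 22 °C. IC50 from 4-parameter logistic fit.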

In another experiment the test system is MCF7 cells. Put plainly: Proliferation assay (MCF7 cell line). The class given is cell-based. The settings on record: Homo sapiens, 96 h; MCF7, 4 days, crystal violet; read-out: Biological Assay 2: Proliferation assay (MCF7 cell line) median IC50. The protocol:
Cultivated tumor cells (cells were ordered from ATCC, except HeLa-MaTu and HeLa-MaTu-ADR, which were ordered from EPO-GmbH, Berlin) were plated at a density of 1000 to 5000 cells/well, depending on the growth rate of the respective cell line, in a 96-well multititer plate in 200 μL of their respective growth medium supplemented 10% fetal calf serum. After 24 hours, the cells of one plate (zero-point plate) were stained with crystal violet (see below), while the medium of the other plates was replaced by fresh culture medium (200 μl), to which the test substances were added in various concentrations (0 μM, as well as in the range of 0.001-10 μM; the final concentration of the solvent dimethyl sulfoxide was 0.5%). The cells were incubated for 4 days in the presence of test substances. Cell proliferation was determined by staining the cells with crystal violet: the cells were fixed by adding 20 μl/measuring point of an 11% glutaric aldehyde solution for 15 minutes at room temperature. […] Absorbtion was determined by photometry at a wavelength of 595 nm. The change of cell number, in percent, was calculated by normalization of the measured values to the aborbtion values of the zero-point plate (=0%) and the absorbtion of the untreated (0 μm) cells (=100%). The IC50 values were determined by means of a 4 parameter fit using the company's own software.

Another experiment deals with HeLa cells. Put plainly: Proliferation assay (HeLa cell line). Type of experiment: cell-based. To be noted: 4 days, crystal violet, read-out: Biological Assay 2: Proliferation assay (HeLa cell line) median IC50.

Read-outs that look alike come from different tables or passages of the source.

Chain of catalytic domain of human Bub1 (amino acids 704-1085) (O43683 704-1085): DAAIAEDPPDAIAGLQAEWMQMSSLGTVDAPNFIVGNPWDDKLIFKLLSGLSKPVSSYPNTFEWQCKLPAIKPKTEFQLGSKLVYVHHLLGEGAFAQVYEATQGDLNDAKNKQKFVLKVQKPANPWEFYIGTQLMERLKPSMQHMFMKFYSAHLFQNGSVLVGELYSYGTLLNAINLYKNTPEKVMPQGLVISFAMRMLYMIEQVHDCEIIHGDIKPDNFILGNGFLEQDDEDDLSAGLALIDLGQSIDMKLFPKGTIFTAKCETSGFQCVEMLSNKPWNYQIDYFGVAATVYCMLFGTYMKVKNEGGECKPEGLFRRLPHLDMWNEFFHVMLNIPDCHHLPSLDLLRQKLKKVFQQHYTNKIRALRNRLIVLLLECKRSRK

With `COC(=O)c1ccc(Cl)c(Cn2nc(-c3ncc(OC)c(Nc4ccncc4)n3)c3ccccc32)c1Cl` [Example 2-16-1, methyl 2,4-dichloro-3-({3-[5-methoxy-4-(pyridin-4-ylamino)pyrimidin-2-yl]-1H-indazol-1-yl}methyl)benzoate], the IC50 in the experiment with DU145 cells amounted to 2000 nM; with B16F10 cells it was 990 nM; in the experiment with NCI-H460 cells, 2900 nM; with Caco2 cells, 2600 nM; with HeLa-MaTu-ADR cells, 1200 nM; in experiment [1], 8.4 nM. Further, the IC50 in the experiment on MCF7 cells turned out to be 2000 nM; with HeLa cells (Homo sapiens, 96 h), 1600 nM.
Turning to `CCOc1cc(F)c(Cn2nc(-c3ncc(OC)c(Nc4ccncc4)n3)c3ccccc32)c(F)c1` [Example 2-5-1, 2-[1-(4-ethoxy-2,6-difluorobenzyl)-1H-indazol-3-yl]-5-methoxy-N-(pyridin-4-yl)pyrimidin-4-amine], the IC50 in the experiment on DU145 cells is 1700 nM; with B16F10 cells it was 1100 nM; in the experiment on NCI-H460 cells it was 1400 nM; with Caco2 cells it was 1200 nM; in the experiment on HeLa-MaTu-ADR cells, 1200 nM; in experiment [1] it was 4.6 nM. Moreover, the IC50 in the experiment with MCF7 cells was 3100 nM; with HeLa cells it was 2100 nM.
